Data as given in US20250360108A1, “CATALYTIC INHIBITOR OF PROTEIN PHOSPHATASE 5 ACTIVATES THE EXTRINSIC APOPTOTIC PATHWAY BY DISRUPTING COMPLEX II” (The Research Foundation for the State University of New York, priority 2022, published 2025).

Key:
VHL-null ccRCC cells = experiment: Flow cytometric cell death by propidium iodide staining; assay type: cell-based, human; conditions: 30 or 40 μM; A498 and 786-O versus Caki-1 and Caki-2
Method: Flow Cytometric Analysis: Fluorescence-activated cell sorting (FACS) analysis was performed according to the protocol in the Annexin V:FITC kit (Bio-Rad). In brief, cells were plated in 10 cm dish at 0.5×10^6 and incubated at 37° C. for 18 hrs. […] Cells were trypsinized, collected and washed once with 1× binding buffer (included in the kit). Propidium iodide was added, then the cells were immediately run on a Becton Dickinson LSRFortessa instrument (BD Biosciences). Data were analyzed using FlowJo software version 10.7.1 for Windows (BD Biosciences).

786-O cells [1] = experiment: Induction of apoptosis by immunoblotting of apoptotic markers; assay type: cell-based, human
Method: Method Details Cell Transfection and Treatment: Cultured cells were split and then transfected the following day when about 40% confluent with each construct using Mirus TranslT-2020 (MirusBio) according to manufacturer's protocol. Cells were incubated at 37° C. and then extracted or collected for analysis after 24 hrs (HEK293) or 72 hrs (ccRCC cell lines). Short interfering RNA (siRNA) scramble control and PPP5C (PP5) targeting duplexes were purchased from OriGene (SKU: SR321403A, SR321403B, and SR321403C). Indicated cells were transiently transfected with the siRNA using Mirus TranslT-2020. For PP5 knock-down, either 30 nM of control siRNA or 10 nM of each PP5 siRNA duplex (A, B and C) were mixed prior to transfection. Cells were incubated at 37° C. for 72 hrs, then harvested for protein extraction. […] Cells were then harvested for protein extraction.
Protein Extraction, Immunoprecipitation and Immunoblotting: Protein extraction from mammalian cells was carried out using methods previously described. Cell lysates were quantified using 1× Bradford reagent (Biorad). For immunoprecipitation, cell lysates were incubated with anti-FLAG antibody conjugated beads (Sigma) or anti-HA conjugated beads (ThermoFisher Scientific) at 4° C. for 2 hrs. Endogenous IPs were achieved by incubating lysate with anti-PP5 antibody (Cell Signaling), anti-FADD antibody (Cell Signaling), or anti-RIPK1 antibody (Cell Signaling) overnight followed by protein G agarose (Invitrogen) at 4° C. for 2 hrs. Immunopellets were washed 4 times with fresh lysis buffer (20 mM Tris-HCl (pH 7.4), 100 mM NaCl, 1 mM MgCl2, 0.1% NP40, protease inhibitor cocktail (Roche), and PhosSTOP (Roche)) and eluted in 5× Laemmli buffer. Precipitated proteins were separated by SDS-PAGE and transferred to nitrocellulose membranes. Co-immunoprecipitated proteins or proteins from cell lysate were detected with antibodies recognizing FLAG, 6×-His (ThermoFisher Scientific), GAPDH (ENZO Life Sciences), Cdc37 (StressMarq), GR, phospho-GR (S211), PP5, caspase-3, cleaved caspase-3, caspase-8, cleaved caspase-8, cleaved caspase-7, cleaved-PARP, phospho-RIPK1 (S166), phospho-FADD (S194), PP2A-C, VHL (Cell Signaling), phospho-RIPK1 (S161) (Invitrogen), PP5 and phospho-Cdc37 (S13) (Abcam). Secondary antibodies raised against mouse and rabbit (Cell Signaling) were used (See Key Resources Table).

PP1 = conditions: cited from earlier work
PP5 = target: T1, PP5 (Homo sapiens, UniProt P53041); conditions: cited from earlier work
T1 sequence (P53041 1-499): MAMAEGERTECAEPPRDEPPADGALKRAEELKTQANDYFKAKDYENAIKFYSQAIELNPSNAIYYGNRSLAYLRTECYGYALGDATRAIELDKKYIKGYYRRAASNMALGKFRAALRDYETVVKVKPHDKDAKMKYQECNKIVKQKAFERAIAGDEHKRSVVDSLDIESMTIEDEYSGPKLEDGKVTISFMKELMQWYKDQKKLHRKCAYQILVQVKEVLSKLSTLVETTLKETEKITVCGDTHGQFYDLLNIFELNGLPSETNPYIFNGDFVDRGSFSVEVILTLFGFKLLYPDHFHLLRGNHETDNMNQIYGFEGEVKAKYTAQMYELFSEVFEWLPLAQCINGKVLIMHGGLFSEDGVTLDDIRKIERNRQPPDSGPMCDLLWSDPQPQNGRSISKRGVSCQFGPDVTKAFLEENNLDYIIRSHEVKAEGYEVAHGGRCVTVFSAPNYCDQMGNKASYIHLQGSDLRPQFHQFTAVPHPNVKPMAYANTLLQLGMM

[2] = target: T2, PP5-FLAG active site point mutants (Homo sapiens, UniProt P53041, R400A); experiment: Biotin-P13 pulldown of PP5 active site point mutants; assay type: binding; conditions: HEK293 lysate
T2 construct: expressed in transfected cells; host or cells: HEK293
T2 sequence (P53041 2-499 R400A): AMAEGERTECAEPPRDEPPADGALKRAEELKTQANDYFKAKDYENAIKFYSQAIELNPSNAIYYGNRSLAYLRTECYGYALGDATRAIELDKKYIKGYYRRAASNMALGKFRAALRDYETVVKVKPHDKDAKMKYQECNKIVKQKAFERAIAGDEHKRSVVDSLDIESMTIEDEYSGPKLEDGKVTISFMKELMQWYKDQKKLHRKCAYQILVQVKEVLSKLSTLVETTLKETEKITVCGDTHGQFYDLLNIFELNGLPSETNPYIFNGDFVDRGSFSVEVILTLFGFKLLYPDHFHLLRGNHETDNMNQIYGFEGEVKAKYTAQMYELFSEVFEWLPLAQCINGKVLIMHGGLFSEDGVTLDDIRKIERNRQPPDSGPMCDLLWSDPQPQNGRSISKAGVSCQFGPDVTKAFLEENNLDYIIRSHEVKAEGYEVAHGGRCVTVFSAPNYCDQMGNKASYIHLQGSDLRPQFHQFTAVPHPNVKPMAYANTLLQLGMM
Method: (§1) We then mutated docking site residues in the active site of PP5 to obtain further insight into the mechanism of P13 binding to PP5. […] These mutants were transiently expressed in HEK293 cells, and then the protein lysates were challenged with different amounts of biotin-P13 (FIG. 1G).
(§2) Biotin-P5 and biotin-P13 Pulldown: HEK293 cells were transiently transfected with PP5-FLAG or active site point mutants and protein lysate extracted. Lysate was incubated with 0.01-10 μM biotin-P5 or biotin P-13 as indicated at 4° C. for 1 hr then added to streptavidin-conjugated agarose and incubated at 4° C. for 1 hr. Following three washes with fresh extraction buffer bound proteins were eluted in 5× Laemmli buffer and analyzed by Western blot. […] Samples were run by SDS PAGE, transferred to nitrocellulose membrane, and analyzed by Western blot.

[3] = test system: PP5-FLAG active site point mutants; experiment: as above; assay type: binding, human; conditions: HEK293 lysate
Method: as §1, §2

PP5-FLAG = target: T3, PP5-FLAG (Homo sapiens, UniProt P53041); experiment: Biotin-P5 and biotin-P13 pulldown from HEK293 lysate; assay type: binding
T3 construct: expressed in transfected cells; host or cells: HEK293
T3 sequence (P53041 1-499): T1 sequence (P53041 1-499)
Method: as §2

PP2A = experiment: Biotin-P5 / biotin-P13 pulldown in 786-O lysate, co-pulldown of PP2A; assay type: binding, human; conditions: cell lysate, 1 μM
786-O cells [4] = experiment: Cell viability / proliferation MTT assay; assay type: cell-based, human; conditions: varying doses, 48 hrs
Method: Cell Viability Assay: Renal cancer cell lines 786-O, Caki-2, Caki-1, and A498 as well as the normal renal cell line HK-2 were plated at 10,000 cells per well in 96-well plates. […] After 24 or 48 hrs, cell viability assay was performed using the Quick Cell Proliferation Kit Plus (BioVision) according to the manufacturer's protocol. The absorbance at 450 nm was measured on a Tecan Infinite M200 Pro and proliferation rate was calculated.

recombinant PP5-His6 [5] = target: T4, recombinant PP5-His6 (Homo sapiens, UniProt P53041); experiment: P13-BODIPY binding to PP5 by fluorescence anisotropy; conditions: measured with 10 nM BODIPY-labeled P13, one-site fit; read-out: binding affinity to PP5
T4 construct: GST (N, cleaved yes); made in house
T4 sequence (P53041 1-499): T1 sequence (P53041 1-499)
Method: We next synthesized BODIPY-labelled version of compound P13 (P13-BODIPY) in order to obtain the binding affinity of this inhibitor to PP5 in vitro (FIG. S3A). This was accomplished by coupling the azidopropyl-P13 10 with 4,4-difluoro-5,7-dimethyl-4-bora-3a,4a-diaza-s-indacene-3-propionic acid (BODIPY Acid 13). Using fluorescence anisotropy with recombinant PP5 protein (FIG. S3B), we determined the binding affinity of P13 compound to PP5 to be 376.2±60 nM (FIG. 1H).
Binding Measurements and Anisotropy: Recombinant PP5-His6 at the indicated concentrations was incubated on ice in 100 mM NaCl, 20 mM HEPES pH 8.0, 1% glycerol, 0.2 mM tris(2-carboxyethyl)phosphine (TCEP) and 0.5 mM MnCl2 with 10 nM BODIPY-labeled P13 in 2% DMSO for 30 min in opaque black 96 well plates (Corning). Uncalibrated fluorescence anisotropy was then measured using a SpectraMax i3 equipped with fluorescein anisotropy module (Molecular Devices). Curves were fit to a one-site binding equation using GraphPad Prism version 9.5.0. y=y0+A*x/(Kd+x) where y is measured uncalibrated anisotropy, y0 is the y intercept, A is the amplitude of the curve, x is the concentration of PP5 used, and Kd is the measured dissociation constant. Data are presented as mean±SEM.

recombinant PP5-His6 [6] = target: T4, recombinant PP5-His6; experiment: PP5 Phosphatase Activity and Inhibition Assay (PiPer phosphate release, phospho-S211-GR peptide); assay type: biochemical; conditions: phospho-S211-GR peptide substrate
Method: PP5 inhibitors specifically bind to the phosphatase-catalytic domain: We next sought to measure the inhibition of PP5 activity in vitro with P5 and P13.
Bacterial Expression and Protein Purification of PP5: Human PPP5c was cloned into pGEX6P1 with an N-terminal GST tag and C-terminal His6 tag. Transformed cells were grown at 37° C. in LB with 100 mg/L ampicillin until OD600=0.6 and induced with 1 mM IPTG. Cells were harvested by centrifugation and lysed by sonication in lysis buffer (50 mM Hepes (pH 8.0), 150 mM NaCl, 0.5 mM TCEP and EDTA-free protease inhibitor cocktail tablet (Roche)). Lysate was incubated with talon resin (Takara Bio) for 1 hr at 4° C. The resin was washed three times with lysis buffer and PP5 was eluted with lysis buffer containing 250 mM imidazole. Precision protease was added to the elution overnight to cleave the GST tag and the sample was then mixed with Glutathione Sepharose resin (Cytiva) to remove the free GST and un-cleaved protein. The sample was applied to a Superdex S75 16/60 size exclusion column (GE Healthcare) and eluted in 100 mM NaCl, 20 mM Hepes pH 8, 02 mM TCEP.
PP5 Phosphatase Activity and Inhibition Assay: The phosphatase activity of the recombinant PP5-His6 was measured using the PiPer™ Phosphate Assay Kit (Thermo Fisher Scientific) as described in the manufacturer's protocol. Standard curve with linear fit line was created from 0-1 nM Pifinal concentration reactions. 1 nM of PP5-His6 was added to each reaction with indicated amounts of custom synthesized substrate phospho-S211-glucocorticoid receptor (PhosS211-GR) peptide (see Key Resources Table) as specific substrate (Thermo Fisher Scientific). Reactions were run in triplicate and incubated at 37° C. for over 10 min. […] Enzyme kinetics were calculated and plotted using Lineweaver Burk plot and web-based tool (https://www.aatbio.com/tools/ic50-calculator) for calculating IC50 and (https://bioinfo-abcc.ncifcrf.gov/IC50_Ki_Converter/index.php) for converting IC50 to Ki values for inhibitors of enzyme activity and ligand binding.

S194-FADD = experiment: Phosphorylation of S194-FADD by immunoblot after IC261; assay type: cell-based, human; conditions: 786-O and A498 cells, indicated amounts, 24 hrs
Method: Method Details Cell Transfection and Treatment: Cultured cells were split and then transfected the following day when about 40% confluent with each construct using Mirus TranslT-2020 (MirusBio) according to manufacturer's protocol. Cells were incubated at 37° C. and then extracted or collected for analysis after 24 hrs (HEK293) or 72 hrs (ccRCC cell lines). Short interfering RNA (siRNA) scramble control and PPP5C (PP5) targeting duplexes were purchased from OriGene (SKU: SR321403A, SR321403B, and SR321403C). Indicated cells were transiently transfected with the siRNA using Mirus TranslT-2020. For PP5 knock-down, either 30 nM of control siRNA or 10 nM of each PP5 siRNA duplex (A, B and C) were mixed prior to transfection. […]
Protein Extraction, Immunoprecipitation and Immunoblotting: Protein extraction from mammalian cells was carried out using methods previously described. Cell lysates were quantified using 1× Bradford reagent (Biorad). […] Co-immunoprecipitated proteins or proteins from cell lysate were detected with antibodies recognizing FLAG, 6×-His (ThermoFisher Scientific), GAPDH (ENZO Life Sciences), Cdc37 (StressMarq), GR, phospho-GR (S211), PP5, caspase-3, cleaved caspase-3, caspase-8, cleaved caspase-8, cleaved caspase-7, cleaved-PARP, phospho-RIPK1 (S166), phospho-FADD (S194), PP2A-C, VHL (Cell Signaling), phospho-RIPK1 (S161) (Invitrogen), PP5 and phospho-Cdc37 (S13) (Abcam). […]

Cc1noc(C)c1S(=O)(=O)Nc1ccc(Cc2ccccc2)cc1 [Compound P053, (3,5-Dimethyl-4-isoxazolylsulfonyl)(p-benzylphenyl)amine]
cell death (PI staining) (VHL-null ccRCC cells): selectively caused cell death
cleavage of caspase 3 and PARP (786-O cells [1]; 10 μM, 24 hrs): increased cleavage
cleavage of caspase 8 versus caspase 9 (extrinsic apoptosis) (786-O cells [1]; 10 μM, 24 hrs): cleavage of caspase 8 but not caspase 9
induction of apoptosis (cleaved PARP, cleaved caspase 8) (786-O cells [1]; 10 μM, 24 hrs): had the ability to induce apoptosis

CN1CCN(C(=O)C2C(C(=O)O)[C@H]3CC[C@@H]2O3)CC1 (stereo partly shown) [LB-100]
inhibition of PP1 (PP1): inhibit
inhibition of PP5 (PP5): inhibit

Cc1ccc(N(CCCNC(=O)CCC[C@@H]2SC[C@@H]3NC(=O)N[C@@H]32)S(=O)(=O)c2c(C)noc2C)cc1C [biotin-P13, 4-[(3aS,4S,6aR)-2-Oxo-hexahydro-1H-thieno[3,4-d]imidazol-4-yl]-N-(3-[N-(3,4-dimethylphenyl)3,5-dimethyl-1,2-oxazole-4-sulfonamido]propyl}butanamide]
binding of R400A PP5 mutant compared to wild-type PP5 [2]: reduced binding
binding of H304Q, M309C and W386F PP5 mutants [3]: unable to bind
binding of R275A and Y451F PP5 mutants compared to wild-type PP5 [3]: increased binding
binding to PP5-FLAG compared to biotin-P5 (PP5-FLAG; 10 μM): bound more
binding of PP5-FLAG to biotinylated compound (streptavidin pulldown) (PP5-FLAG; 0.01-10 μM): binds
binding to PP2A (PP2A): did not bind

Cc1ccc(NS(=O)(=O)c2c(C)noc2C)cc1C [Compound P13, (3,5-Dimethyl-4-isoxazolylsulfonyl)(3,4-xylyl)amine]
proliferation of 786-O cells (MTT) (786-O cells [4]): significantly inhibited the proliferation
cleavage of apoptotic markers caspase 3 and 8 and PARP (786-O cells [1]; 10 μM, 24 hrs): cleavage of the apoptotic markers caspase 3 and 8 and PARP
Kd (recombinant PP5-His6 [5]): 0.376 ± 0.06 µM
mode of PP5 inhibition (enzyme kinetics, Lineweaver-Burk) (recombinant PP5-His6 [6]): competitive inhibitors
Ki (recombinant PP5-His6 [6]; IC50 converted to Ki): 0.234 ± 0.05 µM

COc1cc(OC)c(C=C2C(O)=Nc3ccccc32)c(OC)c1 [IC261, reference compound]
S194-FADD phosphorylation (S194-FADD): increase in S194-FADD phosphorylation
induction of extrinsic apoptosis (apoptotic markers) (786-O cells [1]; indicated amounts, 16 hrs): induced extrinsic apoptosis in a dose-dependent manner
